pIC50: −log10 of the molar value.
Tests used:
[1] = tested on: myosatellite cells derived from a rat; assay: Oil red-O staining of oil droplets / count of adipocyte-like cells after adipogenic differentiation culture; assay type: cell-based
Description: (§1) The gastrocnemial muscle, the soleus, the anterior tibial muscle, the extensor digitorum longus muscle, and the quadriceps femoris muscle were extracted from the Fischer 344 rat of 10 to 14 weeks old under anesthesia, and minced. The above tissues were subjected to enzymolysis with Protease (Sigma-Aldrich) and subjected to centrifugal treatment to obtain a precipitate. The obtained precipitate was suspended in Dulbecco's Modified Eagle Medium (DMEM) containing 10% horse fetus serum, and seeded on an 8-well slide glass (BD Thermo Science) so that the myosatellite cells are 5×10^4 to 7×10^4 cells/mL.
(§2) Myosatellite cells isolated by F-10 containing 20% cow serum (GIBCO) was cultured for 72 h. Then, the cells were cultured for 72 h. in an adipogenic induction medium (Lonza) containing 0.1% DMSO (Control), 5 μM quercetin, 10 μM quercetin or 50 μM quercetin. Then, the cells were cultured for 72 h. in an adipogenic maintenance medium (Lonza) containing the control, 5 μM quercetin, 10 μM quercetin or 50 μM quercetin.
After the cultured cells were washed in PBS, they were fixed by 10% formalin (Wako Pure Chemical Industries, Ltd.) at room temperature for 10 min. Then, they were reacted with 10% oil red-O solution (Sigma Aldrich) that was dissolved in 2-propanol at room temperature for 30 min.

PPARγ = molecular target: T1, PPARγ (Homo sapiens, UniProt P37231); settings: read-out: IC50 as PPARγ inhibitor; cited from earlier work
T1 sequence (P37231 1-505): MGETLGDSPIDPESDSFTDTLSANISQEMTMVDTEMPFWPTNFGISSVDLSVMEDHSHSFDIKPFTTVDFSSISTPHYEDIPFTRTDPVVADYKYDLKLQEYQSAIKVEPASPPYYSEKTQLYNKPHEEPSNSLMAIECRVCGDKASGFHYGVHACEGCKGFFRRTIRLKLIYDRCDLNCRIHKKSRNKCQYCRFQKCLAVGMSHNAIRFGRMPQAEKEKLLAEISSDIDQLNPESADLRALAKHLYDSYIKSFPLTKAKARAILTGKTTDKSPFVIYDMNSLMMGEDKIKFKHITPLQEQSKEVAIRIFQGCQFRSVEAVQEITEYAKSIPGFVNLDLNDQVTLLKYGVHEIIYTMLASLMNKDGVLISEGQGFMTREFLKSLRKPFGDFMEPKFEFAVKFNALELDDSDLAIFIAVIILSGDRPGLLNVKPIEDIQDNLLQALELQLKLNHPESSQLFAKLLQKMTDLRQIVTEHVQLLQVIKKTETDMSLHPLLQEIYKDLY

[2] = cited from earlier work
[3] = tested on: myosatellite cells derived from a rat; assay: Quantification of amount of triglyceride in cells after adipogenic differentiation culture; assay type: cell-based; settings: 5, 10, 50 μM vs 0 μM
Description: as §1, §2
After the cells that were subjected to adipogenic differentiation culture were washed with PBS, a PBS that contains 5% Triton-X 100 was added as a cell lysate, and the cell solution was collected, heated and cooled. After the cells were centrifuged, triglyceride and protein in the supernatant were quantified. The LabAssay™ Triglyceride (Wako Pure Chemical Industries, Ltd.) was used for the quantification of triglyceride. The Pierce BCA Protein Assay Kit (Thermo Scientific) was used for the quantification of protein. […] The results were tested using the Dunnett's test, and the value of 5% or lower was determined to be the significant amount (*: p<0.05 vs 0 μM. †: p<0.05 vs 5 μM).

[4] = 5 μM, 72 h adipogenic induction medium then 72 h adipogenic maintenance medium, vs control (0.1% DMSO)
[5] = 10 μM, 72 h induction then 72 h maintenance medium
[6] = 50 μM, 72 h induction then 72 h maintenance medium

Row | Structure (SMILES) | number of adipocyte-like cells stained by oil red-O ([1]; 1 μM, 72 h induction then 72 h maintenance medium) | number of adipocyte-like cells stained by oil red-O [1, 4] | number of adipocyte-like cells stained by oil red-O [1, 5] | pIC50 (PPARγ) | oil droplets stained by oil red-O [1, 4] | number of oil droplets stained by oil red-O [1, 5] | number of adipocyte-like cells stained by oil red-O [1, 6] | number of oil droplets stained by oil red-O [1, 6] | solubility in water [2] | amount of protein in the cells in the well [3] | amount of triglyceride corrected by the amount of protein [3] | amount of triglyceride in cells after adipogenic differentiation ([3]; Dunnett's test)
1 | O=C(Nc1ccccc1)c1cc([N+](=O)[O-])ccc1Cl [GW9662, reference compound] | did not decrease | did not decrease | did not decrease | 8.48 |  |  |  |  |  |  |  | 
2 | O=c1c(O)c(-c2ccc(O)c(O)c2)oc2cc(O)cc(O)c12 [quercetin] |  | no significant decrease | decreased |  | the same level of oil droplets as the control | decreased in a concentration dependent manner | decreased | decreased in a concentration dependent manner | insoluble to water | did not change | decreased in a quercetin concentration dependent manner | decreased in a quercetin-concentration dependent manner
